{
  "source": "patent US7427493B2",
  "about": "“Recombinant genes for polyketide modifying enzymes” (Kosan Biosciences Incorporated, priority 2002, dated 2008)",
  "origin": "cited, not measured here",
  "tested_on": "parasites",
  "details": "background statement",
  "data": [
    {"smiles": "CC[C@H]1OC(=O)[C@H](C)[C@@H](O[C@H]2C[C@@](C)(OC)[C@@H](O)[C@H](C)O2)[C@H](C)[C@@H](O[C@@H]2O[C@H](C)C[C@H](N(C)C)[C@H]2O)[C@](C)(O)C[C@@H](C)C(=O)[C@H](C)[C@@H](O)[C@]1(C)O", "note": "[erythromycin]", "values": [
      {"measurement": "antiparasitic activity", "value": "does not have antiparasitic activity"}
    ]}
  ]
}
